Laboratory results as given in patent publication US20070253907A1, “Non Human Transgenic Animal as Model of Neurodegenerative Diseases and for the Early Diagnosis Thereof” (priority 2004, published 2007).
“Also recorded” adds a separate entry of the source.

Test system: VK-AD11 mice
Assay: Reversal of the neurodegenerative phenotype of VK-AD11 mice by intranasal NGF administration
Assay type: in vivo
Conditions: VK-AD11 mice from 4 months of age, NGF 10 μM solution intranasally every 2 days
Description: All experiments were conducted in mice starting from 4 months of age, when neurodegeneration is not so readily apparent. NGF was administered by intranasal injection (Frey et al., 1997) conducted every 2 days. NGF was administered as a 10 μM solution in phosphate buffer pH 7.4, injecting 3 μl per nostril every 2 min and alternating nostrils. The VK-AD11 control mice and non transgenic mice were treated only with phosphate buffer. For each administration, the infusion lasted 30 min. This non invasive method for administering NGF allows to avoid the use of the intraventricular injections to apply NGF directly to the cerebral tissue.
To verify the administration of NGF, the mice were sacrificed 2 months from the begining of the treatment. The brain was removed and fixed in paraformaldehyde to conduct histological analyses.

## NGF: Nerve Growth Factor, administered intranasally as a 10 μM solution in phosphate buffer pH 7.4
Histology 2 months from beginning of treatment (FIG. 18A)
  cholinergic deficit: improves; also recorded: a similar phenotype to that of the non transgenic control mice was re-established
Histology 2 months from beginning of treatment (FIG. 18B)
  deposition of β-amyloid (number of cells containing β-amyloid): decreases; also recorded: a similar phenotype to that of the non transgenic control mice was re-established
Histology 2 months from beginning of treatment (FIG. 18C)
  hyperphosphorylated tau (number of cells that express phosphorylated tau): decreases; also recorded: a similar phenotype to that of the non transgenic control mice was re-established
